Experimental data: US11427567B2, “Imidazolyl pyrimidinylamine compounds as CDK2 inhibitors” (Incyte Corporation, priority 2019, dated 2022)

What follows are molecules tested against CDK2/Cyclin E1 (Homo sapiens (Human), UniProt P24941) (assay: CDK2/Cyclin E1 HTRF enzyme activity assay (Example A)). Settings: 1 mM ATP.
Assay type: biochemical
Procedure: Assays were conducted in white 384-well polystyrene plates in a final reaction volume of 8 μL. […] HTRF signals were read after 1 hour at room temperature on a PHERAstar FS plate reader (BMG Labtech). Data was analyzed with IDBS XLFit and GraphPad Prism 5.0 software using a three or four parameter dose response curve to determine IC50 for each compound.

IC50, ≤ 50 nM:
CS(=O)(=O)N1CCC(Nc2ncc(C(F)(F)F)c(-c3cn(-c4cc(F)ccc4C#N)cn3)n2)CC1 [Example 57, 4-Fluoro-2-(4-(2-((1-(methylsulfonyl)piperidin-4-yl)amino)-5-(trifluoromethyl)pyrimidin-4-yl)-1H-imidazol-1-yl)benzonitrile]
Cc1nc(-c2nc(NC3CCN(S(C)(=O)=O)CC3)ncc2C(F)(F)F)cn1-c1ccc(N2CCN(C(C)C)CC2)cc1F [Example 105, 4-(1-(2-Fluoro-4-(4-isopropyl-piperazin-1-yl)-phenyl)-2-methyl-1H-imidazol-4-yl)-N-(1-(methyl-sulfonyl)piperidin-4-yl)-5-(trifluoro-methyl)pyrimidin-2-amine]
Cc1nc(C(N)=O)ccc1-n1cnc(-c2nc(NC3CCN(S(C)(=O)=O)CC3)ncc2C(F)(F)F)c1 [Example 130, 6-Methyl-5-(4-(2-((1-(methylsulfonyl)piperidin-4-yl)amino)-5-(trifluoromethyl)pyrimidin-4-yl)-1H-imidazol-1-yl)picolinamide]
C[C@@H]1CN(S(=O)(=O)c2cn(C)cn2)CC[C@@H]1Nc1ncc(C(F)(F)F)c(-c2cn(-c3cccc(C#N)c3Cl)cn2)n1 [Example 155, 2-Chloro-3-(4-(2-(((3R,4S)-3-methyl-1-((1-methyl-1H-imidazol-4-yl)sulfonyl)piperidin-4-yl)amino)-5-(trifluoromethyl)pyrimidin-4-yl)-1H-imidazol-1-yl)benzonitrile]
CS(=O)(=O)N1CCC(Nc2ncc(Cl)c(-c3cn(-c4ccc(C#N)cc4Cl)cn3)n2)CC1 [Example 171, 3-Chloro-4-(4-(5-chloro-2-((1-(methylsulfonyl)-piperidin-4-yl)-amino)pyrimidin-4-yl)-1H-imidazol-1-yl)benzonitrile]
CS(=O)(=O)N1CCC(Nc2ncc(C(F)(F)F)c(-c3cn(-c4ccc(CN5CC(F)C5)cc4Cl)cn3)n2)CC1 [Example 197, 4-(1-(2-Chloro-4-((3-fluoroazetidin-1-yl)methyl)phenyl)-1H-imidazol-4-yl)-N-(1-(methyl-sulfonyl)piperidin-4-yl)-5-(trifluoro-methyl)pyrimidin-2-amine]
COC1CN(Cc2ccc(-n3cnc(-c4nc(NC5CCN(S(C)(=O)=O)CC5)ncc4C(F)(F)F)c3)c(Cl)c2)C1 [Example 195, 4-(1-(2-Chloro-4-((3-methoxyazetidin-1-yl)methyl)phenyl)-1H-imidazol-4-yl)-N-(1-(methylsulfonyl)-piperidin-4-yl)-5-(trifluoromethyl)-pyrimidin-2-amine]
CCNC(C)c1ccc(-n2cnc(-c3nc(NC4CCN(S(C)(=O)=O)CC4)ncc3C(F)(F)F)c2)c(Cl)c1 (centres unmarked) [Example 273, 4-(1-(2-Chloro-4-(1-(ethylamino)ethyl)phenyl)-1H-imidazol-4-yl)-N-(1-(methylsulfonyl)piperidin-4-yl)-5-(trifluoromethyl)pyrimidin-2-amine]
CS(=O)(=O)N1CCC(Nc2ncc(C(F)(F)F)c(-c3cn(-c4ccc(CN5CCC5)c(F)c4Cl)cn3)n2)CC1 [Example 269, 4-(1-(4-(Azetidin-1-ylmethyl)-2-chloro-3-fluorophenyl)-1H-imidazol-4-yl)-N-(1-(methylsulfonyl)piperidin-4-yl)-5-(trifluoromethyl)pyrimidin-2-amine]
C[C@@H]1CN(S(C)(=O)=O)CC[C@@H]1Nc1ncc(C(F)(F)F)c(-c2cn(-c3ccc(C4CCCCN4)cc3Cl)cn2)n1 (single isomer, unassigned) [Example 278]
CCNCc1ccc(-n2cnc(-c3nc(N[C@@H]4CCN(S(C)(=O)=O)C[C@H]4F)ncc3C(F)(F)F)c2)c(Cl)c1 [Example 401]
Cc1nc(-c2nc(NC3CCN(S(C)(=O)=O)CC3)ncc2C(F)(F)F)cn1-c1ccc(CN2CCC2)cc1Cl [Example 284, 4-(1-(4-(Azetidin-1-ylmethyl)-2-chlorophenyl)-2-methyl-1H-imidazol-4-yl)-N-(1-(methylsulfonyl)piperidin-4-yl)-5-(trifluoromethyl)pyrimidin-2-amine]
CS(=O)(=O)N1CC[C@H](Nc2ncc(C(F)(F)F)c(-c3cn(-c4cccnc4C#N)cn3)n2)[C@H](F)C1 [Example 47, 3-(4-(2-(((3R,4S)-3-Fluoro-1-(methylsulfonyl)piperidin-4-yl)amino)-5-(trifluoromethyl)pyrimidin-4-yl)-1H-imidazol-1-yl)picolinonitrile]
C[C@@H]1CN(S(C)(=O)=O)CC[C@@H]1Nc1ncc(C(F)(F)F)c(-c2cn(-c3ccc(CO)cc3Cl)cn2)n1 [Example 234, (3-Chloro-4-(4-(2-(((3R,4S)-3-methyl-1-(methylsulfonyl)piperidin-4-yl)amino)-5-(trifluoromethyl)pyrimidin-4-yl)-1H-imidazol-1-yl)phenyl)methanol]
Cn1cnc(-c2nc(NC3CCN(S(C)(=O)=O)CC3)ncc2C(F)(F)F)c1 [Example 11, 4-(1-Methyl-1H-imidazol-4-yl)-N-(1-(methylsulfonyl)piperidin-4-yl)-5-(trifluoromethyl)pyrimidin-2-amine]
CC1(O)CN(Cc2ccc(-n3cnc(-c4nc(NC5CCN(S(C)(=O)=O)CC5)ncc4C(F)(F)F)c3)c(C(F)(F)F)c2)C1 [Example 449, 3-Methyl-1-(4-(4-(2-((1-(methylsulfonyl)piperidin-4-yl)amino)-5-(trifluoromethyl)pyrimidin-4-yl)-1H-imidazol-1-yl)-3-(trifluoromethyl)benzyl)azetidin-3-ol]
CS(=O)(=O)N1CCC(Nc2ncc(C(F)(F)F)c(-c3cn(-c4cccnc4C#N)cn3)n2)CC1 [Example 34, 3-(4-(2-((1-(Methylsulfonyl)piperidin-4-yl)amino)-5-(trifluoromethyl)pyrimidin-4-yl)-1H-imidazol-1-yl)picolinonitrile]
CS(=O)(=O)N1CCC(Nc2ncc(C(F)(F)F)c(-c3cn(-c4cccnc4C(F)F)cn3)n2)CC1 [Example 37, 4-(1-(2-(Difluoromethyl)pyridin-3-yl)-1H-imidazol-4-yl)-N-(1-(methylsulfonyl)piperidin-4-yl)-5-(trifluoromethyl)pyrimidin-2-amine]
CCN1CCN(Cc2cc(F)c(-n3cnc(-c4nc(NC5CCN(S(C)(=O)=O)CC5)ncc4C(F)(F)F)c3)c(Cl)c2)CC1 [Example 396, 4-(1-(2-Chloro-4-((4-ethylpiperazin-1-yl)methyll)-6-fluorophenyl)-1H-imidazol-4-yl)-N-(1-(methylsulfonyl)piperidin-4-yl)-5-(trifluoromethyl)pyrimidin-2-amine]
CC(=O)Nc1nccc(-n2cnc(-c3nc(NC4CCN(S(=O)(=O)c5cn(C)cn5)CC4)ncc3C(F)(F)F)c2)c1C [Example 8, N-(3-Methyl-4-(4-(2-((1-((1-methyl-1H-imidazol-4-yl)sulfonyl)piperidin-4-yl)amino)-5-(trifluoromethyl)pyrimidin-4-yl)-1H-imidazol-1-yl)pyridin-2-yl)acetamide]
